Tests used:
Assay type in all cases: cell-based
L. casei = assay: Delivery of lactoferrin-complexed 55Fe to bacteria in serum-SAPI; settings: 55Fe-complexed human lactoferrin, tannic acid 50 μg/ml, other compounds 100 μM, BF 2% v/v
Method: (§1) L. casei and E. coli were added at around 5×10^6 CFU/ml to triplicate 1 ml serum-SAPI medium containing the additions shown in Table 2, and 2×10^5 cpm/ml of ^55Fe-complexed human lactoferrin. Tannic acid was used at 50 μg/ml, the other compounds were all used at 100 μM, final concentration; BF was used at 2% v/v. Cultures were incubated as described in the legend to FIG. 2, and growth enumerated on MRS agar (L. casei) or Luria agar (E. coli). ^55Fe incorporation was determined by scintillation counting of triplicate washed bacteria cultures.

E. coli = settings: 55Fe-complexed human lactoferrin, tannic acid 50 μg/ml, other compounds 100 μM, BF 2% v/v
Method: as §1

LAB = LAB growth response to catecholamines in serum-based media; settings: serum-based media only

Compound | 55Fe incorporation/ml of culture (L. casei) | 55Fe incorporation/ml of culture (E. coli) | Increase in LAB growth (LAB)
O=C(O)/C=C/c1ccc(O)c(O)c1 [Caffeic acid] | 29 | 11385 | 
O=C(OC[C@H]1O[C@@H](OC(=O)c2cc(O)c(O)c(OC(=O)c3cc(O)c(O)c(O)c3)c2)[C@H](OC(=O)c2cc(O)c(O)c(OC(=O)c3cc(O)c(O)c(O)c3)c2)[C@@H](OC(=O)c2cc(O)c(O)c(OC(=O)c3cc(O)c(O)c(O)c3)c2)[C@@H]1OC(=O)c1cc(O)c(O)c(OC(=O)c2cc(O)c(O)c(O)c2)c1)c1cc(O)c(O)c(OC(=O)c2cc(O)c(O)c(O)c2)c1 [Tannic acid] | 28 | 13952 | 
NC[C@H](O)c1ccc(O)c(O)c1 [Noradrenaline] | 29 | 8542 | around 2 log-fold
Catechin | 57 | 3931 | 
NCCc1ccc(O)c(O)c1 [Dopamine] | 48 | 6815 | around 2 log-fold
O=C(/C=C/c1ccc(O)c(O)c1)O[C@@H]1C[C@](O)(C(=O)O)C[C@@H](O)[C@H]1O [Chlorogenic acid] | 28 | 7374 | 

— patent US9796958B2, “Bacterial growth enhancer” (Plant Bioscience Limited, priority 2005, dated 2017)
